Values quoted from earlier work as cited in PubChem BioAssay AID1259409 (Chemical Carcinogenesis Research Information System (CCRIS), 2018).

Tested on: rodent chemically induced tumor inhibition, incidence and multiplicity
Assay: CCRIS tumor inhibitor studies
Conditions: Promoter: NONE USED

## COc1ccc2c(c1)c(CC(=O)O)c(C)n2C(=O)c1ccc(Cl)cc1
Carcinogen: N-ETHYL-N-NITROSOUREA, 759-73-9, Dose [Inhibitor]: 0, 20 MG/L IN DRINKING WATER FOR 12 MO ADMINISTERED TO OFFSPRING OF CARCINOGEN-TREATED MOTHERS (STUDY DURATION: 12 MO), Route [Inhibitor]: ORAL, Species: RAT, Strain/Sex: ALBINO/MALE, FEMALE, Target Tissue: Type of Lesion: PERIPHERAL NERVES: TUMOR, Dose [Carcinogen]: 75 MG/KG BW ADMINISTERED INTRAPERITONEALLY TO MOTHERS 21 D POST CONCEPTION
  tumour outcome (control, treated, inhibition, significance): 13/42 (31%), 3/25 (12%), 61%, not significant
Carcinogen: N-ETHYL-N-NITROSOUREA, 759-73-9, Dose [Inhibitor]: 0, 20 MG/L IN DRINKING WATER FOR 12 MO ADMINISTERED TO OFFSPRING OF CARCINOGEN-TREATED MOTHERS (STUDY DURATION: 12 MO), Route [Inhibitor]: ORAL, Species: RAT, Strain/Sex: ALBINO/MALE, FEMALE, Target Tissue: Type of Lesion: SPINAL CHORD: TUMOR, Dose [Carcinogen]: 75 MG/KG BW ADMINISTERED INTRAPERITONEALLY TO MOTHERS 21 D POST CONCEPTION
  tumour outcome (control, treated, inhibition, significance): 11/42 (26%), 4/25 (16%), 38%, not significant
Carcinogen: N-METHYL-N-NITROSOUREA, 684-93-5, Dose [Inhibitor]: 2.5 MG/KG BW FOR 10 WK STARTING 21 WK POST CARCINOGEN TREATMENT (STUDY DURATION: 35 WK), Route [Inhibitor]: INTRAPERITONEAL, Species: RAT, Strain/Sex: CD/F344/FEMALE, Target Tissue: Type of Lesion: COLON: ADENOCARCINOMA, Dose [Carcinogen]: 2 MG 3/WK FOR 5 WK
  tumour outcome (control, treated, inhibition, significance): 6/9 (67%), 6/9 (67%), 0%, not significant
Carcinogen: N-METHYL-N-NITROSOUREA, 684-93-5, Dose [Inhibitor]: 2.5 MG/KG BW FOR 15 WK STARTING 5 WK POST CARCINOGEN TREATMENT (STUDY DURATION: 26 WK), Route [Inhibitor]: INTRAPERITONEAL, Species: RAT, Strain/Sex: CD/F344/FEMALE, Target Tissue: Type of Lesion: COLON: ADENOCARCINOMA, Dose [Carcinogen]: 2 MG 3/WK FOR 5 WK
  tumour outcome (control, treated, inhibition, significance): 20/30 (67%), 9/29 (31%), 54%, p<0.02
Carcinogen: N-METHYL-N-NITROSOUREA, 684-93-5, Dose [Inhibitor]: 2.5 MG/KG BW FOR 15 WK STARTING 5 WK POST CARCINOGEN TREATMENT FOLLOWED BY 10 WK CESSATION OF TREATMENT (STUDY DURATION:, Route [Inhibitor]: INTRAPERITONEAL, Species: RAT, Strain/Sex: CD/F344/FEMALE, Target Tissue: Type of Lesion: COLON: ADENOCARCINOMA, Dose [Carcinogen]: 2 MG 3/WK FOR 5 WK
  tumour outcome (control, treated, inhibition, significance): 6/9 (67%), 7/9 (78%), -16%, not significant
Carcinogen: N-METHYL-N-NITROSOUREA, 684-93-5, Dose [Inhibitor]: 10 UG/ML TAP WATER FOR 15 WK STARTING 10 WK AFTER THE START OF CARCINOGEN TREATMENT AND CONTINUING THROUGH END OF STUDY, Route [Inhibitor]: ORAL, Species: RAT, Strain/Sex: CD-FISCHER/FEMALE, Target Tissue: Type of Lesion: LARGE INTESTINE: ADENOCARCINOMA, Dose [Carcinogen]: 2 MG 3/WK FOR 5 WK
  tumour outcome (control, treated, inhibition, significance): 18/27 (67%), 4/28 (14%), 79%, p<0.01
Carcinogen: N-METHYL-N-NITROSOUREA, 684-93-5, Dose [Inhibitor]: 20 UG/ML TAP WATER FOR 15 WK STARTING 10 WK AFTER THE START OF CARCINOGEN TREATMENT AND CONTINUING THROUGH END OF STUDY, Route [Inhibitor]: ORAL, Species: RAT, Strain/Sex: CD-FISCHER/FEMALE, Target Tissue: Type of Lesion: LARGE INTESTINE: ADENOCARCINOMA, Dose [Carcinogen]: 2 MG 3/WK FOR 5 WK
  tumour outcome (control, treated, inhibition, significance): 18/27 (67%), 4/24 (17%), 75%, p<0.01
Carcinogen: N-NITROSOMETHYLUREA, 684-93-5, Dose [Inhibitor]: 0, 0.001% IN DRINKING WATER FOR STUDY DAYS 1 TO 8 (STUDY DURATION: 31 WK), Route [Inhibitor]: ORAL, Species: RAT, Strain/Sex: SPRAGUE-DAWLEY/MALE, Target Tissue: Type of Lesion: LARGE BOWEL: ADENOCARCINOMA, Dose [Carcinogen]: 4 MG ON D 3, 5 AND 7 OF STUDY
  tumour outcome (control, treated, inhibition, significance): 26/29 (90%), 20/30 (67%), 26%, not significant
Carcinogen: UVB IRRADIATION, Dose [Inhibitor]: 700 NMOL IN 0.1 ML ACETONE 5/WK FOR 4 WK IMMEDIATELY AFTER EACH EXPOSURE TO UVB FOLLOWED BY 48 WK OBSERVATION PERIOD (ST, Route [Inhibitor]: DERMAL, Species: MOUSE, Strain/Sex: SKH/HRL/FEMALE, Target Tissue: Type of Lesion: SKIN: TUMOR, Dose [Carcinogen]: 0.3 KJ/SQM ON FIRST DAY, 0.6 KJ/SQM ON SECOND DAY THEN 0.9 KJ/SQM UVB ADMINISTERED 5 D/WK FOR 4 WK
  tumour outcome (control, treated, inhibition, significance): 8/27 (30%), 6/26 (23%), 23%, not significant
Dose [Inhibitor]: 0, 0.005% IN DIET FOR DURATION OF STUDY BEGINNING SIMULTANEOUSLY WITH CARCINOGEN TREATMENT (STUDY DURATION: 40 WK), Route [Inhibitor]: ORAL, Species: RAT, Strain/Sex: WISTAR/MALE, Target Tissue: Type of Lesion: COLON: TUMOR, Dose [Carcinogen]: 1 ML OF 0.1% DISTILLED WATER SOLUTION 1/D FOR 14 D
  tumour outcome (control, treated, inhibition, significance): 27/33 (82%), 5/18 (28%), 66%, p<0.01
